This is an account of results in PubChem BioAssay (NCI).

Molecules are shown by their SMILES.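 Following 48 hours of exposure in 96-well plates, responses at five concentrations were used to interpolate endpoints linearly. TGI denotes the concentration required for complete inhibition of growth.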 Bounds are passed on as bounds.

Among the test systems are HCC-2998 colon; NCI-H23 lung; OVCAR-5 ovarian; RPMI-8226 leukemia; SF-539 CNS; SK-MEL-5 melanoma; SNB-75 CNS; UO-31 renal; SK-MEL-2 melanoma.
Holding throughout (test): growth of human tumour cells (NCI), 48 h

In the case of `NNC(=O)CNC(=O)c1ccc(Cl)cc1Cl`, the TGI with HCC-2998 colon, in the assay with NCI-H23 lung, in the assay on OVCAR-5 ovarian, in the assay with RPMI-8226 leukemia, in the assay on SF-539 CNS and in the assay with SK-MEL-5 melanoma was more than 100 µM throughout. For the same molecule, the TGI in the assay with SNB-75 CNS and in the assay on UO-31 renal was more than 100 µM in each case.
Regarding `CC(=O)Nc1cc(N(CCOS(C)(=O)=O)CCOS(C)(=O)=O)ccc1N=O`, the TGI with HCC-2998 colon, in the assay with NCI-H23 lung, in the assay on OVCAR-5 ovarian, with RPMI-8226 leukemia, in the assay with SF-539 CNS and in the assay on SK-MEL-2 melanoma was more than 100 µM in each case. Besides, the TGI in the assay with SK-MEL-5 melanoma, in the assay on SNB-75 CNS and in the assay with UO-31 renal was more than 100 µM each time.
Regarding `CC(/C(=N\Nc1ccccc1)c1ccc(O)cc1)C1C(=O)Oc2ccccc21` (stereo unspecified), the TGI in the assay with HCC-2998 colon, with RPMI-8226 leukemia, in the assay on SF-539 CNS, in the assay with SK-MEL-2 melanoma, in the assay on SK-MEL-5 melanoma and in the assay on SNB-75 CNS was more than 100 µM in each case. The TGI in the assay with UO-31 renal is more than 100 µM.
Turning to `O=C(O)C[C@H]1CCCCC12CCOC2=O` (stereo partly specified), the TGI with HCC-2998 colon, in the assay with NCI-H23 lung, in the assay with OVCAR-5 ovarian, in the assay on RPMI-8226 leukemia, with SF-539 CNS and in the assay with SK-MEL-2 melanoma was more than 100 µM each time. For the same molecule, the TGI in the assay on SK-MEL-5 melanoma, with SNB-75 CNS and in the assay with UO-31 renal was more than 100 µM throughout.
Turning to `COC(=O)C(Cc1cc(OC)c(OC)c(OC)c1)c1ccc(OC)cc1` (stereo unspecified), the TGI with OVCAR-5 ovarian, in the assay on RPMI-8226 leukemia, in the assay with SF-539 CNS, in the assay with SK-MEL-5 melanoma and in the assay with UO-31 renal was more than 100 µM each time.
As to `N#Cc1c2c(c(N=P(c3ccccc3)(c3ccccc3)c3ccccc3)n3c1nc1ccccc13)CCCC2`, the TGI is more than 100 µM in the assay with HCC-2998 colon; 61.6 µM in the assay on RPMI-8226 leukemia; more than 100 µM in the assay on SF-539 CNS; 70.4 µM in the assay with SK-MEL-2 melanoma; 27.3 µM in the assay on SK-MEL-5 melanoma; 69.7 µM with SNB-75 CNS. Moreover, in the assay with UO-31 renal, the TGI was found to be 79.4 µM.
In the case of `Cc1cc2c(cc1C)[n+](=O)c(C(=O)C/C(=N/OCCCc1ccccc1)C(=O)Nc1cc(Cl)ccc1Cl)c(C)n2[O-]`, the TGI is more than 100 µM with HCC-2998 colon; more than 100 µM with NCI-H23 lung; more than 100 µM in the assay on OVCAR-5 ovarian; more than 100 µM in the assay on SF-539 CNS; 86.2 µM in the assay on SK-MEL-2 melanoma; more than 100 µM with SK-MEL-5 melanoma. Moreover, the TGI with SNB-75 CNS is more than 100 µM.
In the case of `CO[C@@H]1C=C[C@@]23c4cc5c(cc4C(=O)O[C@H]2CN(C)[C@H]3C1)OCO5`, the TGI with HCC-2998 colon, in the assay on NCI-H23 lung, in the assay with OVCAR-5 ovarian, in the assay with RPMI-8226 leukemia, with SF-539 CNS and in the assay with SK-MEL-2 melanoma was more than 100 µM throughout. In addition, the TGI in the assay with SK-MEL-5 melanoma, in the assay on SNB-75 CNS and in the assay with UO-31 renal was more than 100 µM throughout.
As to `Cc1ccc(NC(=O)C(=O)C(C#N)c2nc(-c3ccc(-c4ccccc4)cc3)cs2)c(C)c1` (stereo unspecified), the TGI with HCC-2998 colon is more than 100 µM; in the assay on NCI-H23 lung it was more than 1 µM; in the assay with OVCAR-5 ovarian, more than 100 µM; in the assay with RPMI-8226 leukemia, more than 100 µM; with SF-539 CNS, more than 100 µM; with SK-MEL-2 melanoma it was more than 100 µM. The TGI in the assay with SK-MEL-5 melanoma, in the assay on SNB-75 CNS and in the assay on UO-31 renal was more than 100 µM throughout.
For `CC1(C)C(O)C[C@@H](O)[C@@]2(C)C1CC[C@]1(C)C2C[C@@H](O)[C@@H]2C([C@@]3(C)CC[C@@H](C(C)(C)O)O3)CCC21C` (stereo partly specified), the TGI with HCC-2998 colon is 31.4 µM; with NCI-H23 lung it was 35.3 µM; with OVCAR-5 ovarian it was 30.7 µM; in the assay on RPMI-8226 leukemia, 66.5 µM; with SF-539 CNS, 27.5 µM; in the assay with SK-MEL-2 melanoma, 28.9 µM. Besides, the TGI in the assay with SK-MEL-5 melanoma was 22.6 µM; in the assay on SNB-75 CNS it was 29.7 µM; in the assay on UO-31 renal, 32.8 µM.
In the case of `CCc1c(Cc2[nH]c(Cc3[nH]c(C=O)c(C)c3CC)c(CC)c2CC)[nH]c(C=O)c1C`, the TGI in the assay with HCC-2998 colon is more than 100 µM; with NCI-H23 lung it was more than 1 µM; in the assay with RPMI-8226 leukemia, more than 100 µM; in the assay on SF-539 CNS, more than 100 µM; in the assay with SK-MEL-5 melanoma, more than 100 µM; in the assay with SNB-75 CNS, more than 100 µM. The TGI with UO-31 renal is more than 100 µM.
As for `CCCCCCCCCCCCCC(=O)OCC1OC(n2cc(F)c(=O)[nH]c2=O)C(NC(=O)OCc2ccccc2)C(OC(=O)CCCCCCCCCCCCC)C1O` (stereo unspecified), the TGI in the assay on HCC-2998 colon, in the assay on NCI-H23 lung, with OVCAR-5 ovarian, in the assay on RPMI-8226 leukemia, with SF-539 CNS and in the assay with SK-MEL-2 melanoma was more than 100 µM throughout. Further, the TGI in the assay on SK-MEL-5 melanoma, in the assay on SNB-75 CNS and in the assay on UO-31 renal was more than 100 µM throughout.
As to `COC(=O)/C=C(\C(=O)OC)c1c2c3c(cc(OC)c(OC)c3c3ccccc13)CCN2C`, the TGI with HCC-2998 colon was more than 100 µM; in the assay on NCI-H23 lung, more than 100 µM; in the assay on OVCAR-5 ovarian, more than 100 µM; in the assay with RPMI-8226 leukemia it was more than 100 µM; in the assay with SF-539 CNS, 75.4 µM; in the assay with SK-MEL-2 melanoma, more than 100 µM. In addition, the figures for the TGI in the assay on SK-MEL-5 melanoma, in the assay on SNB-75 CNS and in the assay on UO-31 renal were 34.3 µM, more than 100 µM and more than 100 µM, respectively.
Turning to `COC(=O)C(CC(C)C)NC(=O)NC12CC3CC(CC(F)(C3)C1)C2` (stereo unspecified), the TGI with HCC-2998 colon, with NCI-H23 lung, with OVCAR-5 ovarian, in the assay with RPMI-8226 leukemia, with SF-539 CNS and in the assay with SK-MEL-2 melanoma was more than 100 µM throughout. Further, the TGI with SK-MEL-5 melanoma, in the assay with SNB-75 CNS and in the assay on UO-31 renal was more than 100 µM throughout.
For the molecule `CCCCCCCCOCC(O)COC(=O)CCCCCCC` (stereo unspecified), the TGI in the assay with HCC-2998 colon, in the assay with NCI-H23 lung, in the assay on OVCAR-5 ovarian, in the assay with RPMI-8226 leukemia, with SK-MEL-5 melanoma and with UO-31 renal was more than 100 µM throughout.
As to `COc1ccc(C2CC(c3cc(C)ccc3O)=NC(N)=N2)cc1` (stereo unspecified), the TGI in the assay on HCC-2998 colon, with NCI-H23 lung, in the assay with OVCAR-5 ovarian, in the assay with RPMI-8226 leukemia, with SF-539 CNS and with SNB-75 CNS was more than 100 µM each time. The molecule further yielded a TGI in the assay with UO-31 renal of more than 100 µM.
